The text below walks through data of US11560420B2, “Method for producing antibodies using ovine B-cells and uses thereof” (Roche Diagnostics Operations, Inc., priority 2013, dated 2023).

The test system of one assay is sIgG+CD45R+ B-cells. The assay can be described thus: IgG secretion by in vitro cultivated pools of sIgG+CD45R+ B-cells (sheep IgG ELISA of supernatants). The note with it: for number of IgG-containing wells compared with basal medium: basal medium supplemented with the factor. The class given is cell-based. The source says:
(§1) To exemplify the current invention PBMCs were isolated from sheep immunized with a KLH-conjugated hapten and underwent positive panning using the biotinylated hapten and magnetic streptavidin beads to enrich antigen-specific B-cells. Subsequently, B-cells were stained for both surface IgG (sIgG) and the B-cell marker CD45R or CD21. Pools of 50 cells (sIgG^+CD45R^+ or sIgG^+CD21^+) were sorted into 96-well plates using a BD FACS Aria cell sorter. Cells were cultivated in medium supplemented with different factors in order to identify a medium composition that promotes the proliferation of the B-cells as well as the differentiation to IgG secreting cells (i.e. plasma cells)
(§2) In all experiment the basal medium was supplemented with 10% FCS, SAC and sheep TSN. Cells were cultivated in the presence of EL4B5 feeder cells.
Pools of 50 cells/well of antigen-enriched sIgG^+CD45R^+ B-cells were cultivated in the different media in a 96-well plate in the presence of EL4B5 feeder cells. After one week of cultivation the sheep IgG concentration of the supernatants was analyzed using a sheep IgG ELISA. The results for IMDM as basal medium are presented in FIG. 1 and for DMEM and IMDM as basal medium in the following Table.
(§3) For a more detailed analysis 4 categories of wells were defined: Wells with no IgG producing cells (IgG concentration below limit of detection, i.e. <10 ng/ml), wells with low IgG concentrations (10-50 ng/ml), wells with an average IgG concentration (50-200 ng/ml) and wells with a high IgG concentration (200-400 ng/ml).
(§4) Suffolk-Merino sheep were immunized several times using a KLH-coupled hapten as immunogen (500 μg dose formulated in an adjuvant). Five days before isolation of B-cells sheep were boosted by a subcutaneous application of the immunogen (500 μg dose per animal formulated in an adjuvant). For isolation of B-cells approx. 150 ml EDTA-blood was taken from the animals and mixed with an equal volume of PBS. The diluted blood was loaded on Leucosep™ tubes (Greiner Bio-One, Frickenhausen, Germany) (20 ml per tube) and centrifuged for 15 min. at 800×g at room temperature. After centrifugation the PBMCs (peripheral blood mononuclear cells) were collected, washed with PBS and counted using a counting chamber.
Following washing with PBS the PBMCs were resuspended in FACS Buffer (PBS/1% BSA) at 5×10^7 cells/ml. For positive panning of antigen-specific B-cells, the cells were labeled by incubation with the biotinylated hapten (500 ng/ml) for 30 min. at 4° C. under gentle rotation. Subsequently cells were washed with PBS and resuspended in Labeling Buffer (PBS/2 mM EDTA) at 1×10^7 cells per 90 μl. Cells were incubated with magnetic streptavidin microbeads (Miltenyi Biotec, Bergisch-Gladbach, Germany) for 30 min. at 4° C. under gentle rotation (using 10 μl of the beads per 90 μl of cell suspension). After washing with PBS cells were resuspended in MACS Buffer (PBS/1% BSA/2 mM EDTA) at 2×10^8 cells/ml and loaded on MACS column (Miltenyi Biotec) equilibrated with MACS buffer. Following washing with MACS buffer the magnet was removed from the column and labeled, antigen-specific cells were eluted in MACS buffer.
For staining of B-cells the eluted cell fraction was washed with PBS and resuspended in FACS Buffer at 2×10^7 cells/ml. […]
In general terms: An ELISA detects its analyte on a solid surface through an enzyme-linked reagent.

Another assay deals with sIgG+CD21+ B-cells. The assay can be described thus: IgG secretion by in vitro cultivated pools of sIgG+CD21+ B-cells (sheep IgG ELISA of supernatants). It counts as cell-based.
From the text: as §1, §2
Pools of 50 cells/well of antigen-enriched sIgG^+CD21^+ B-cells were cultivated in the indicated medium in a 96-well plate in the presence of EL4B5 feeder cells. After one week of cultivation the sheep IgG concentration of the supernatants was analyzed using a sheep IgG ELISA. The results for IMDM as basal medium are presented in FIG. 2 and for DMEM and IMDM as basal medium in the following Table.
as §3, §4
Following washing with PBS the PBMCs were resuspended in FACS Buffer (PBS/1% BSA) at 5×10^7 cells/ml. For positive panning of antigen-specific B-cells, the cells were labeled by incubation with the biotinylated hapten (500 ng/ml) for 30 min. at 4° C. under gentle rotation. Subsequently cells were washed with PBS and resuspended in Labeling Buffer (PBS/2 mM EDTA) at 1×10^7 cells per 90 μl. […]

For assay [1], the system named is single sIgG+CD21+ B-cells. The assay can be described thus: Sorting and cultivation of single sIgG+CD21+ B-cells, IgG concentration of supernatant by ELISA. The class given is cell-based, sheep. The conditions noted are these: for % IgG positive wells: % of total wells. The text has this:
PBMCs were isolated from sheep immunized with a KLH-conjugated hapten, underwent positive panning for enrichment of antigen-specific B-cells and were stained for both sheep sIgG and CD21. Single cells were sorted in 96-well plates using a BD FACS Aria cell sorter. Cells were cultivated in IMDM supplemented with 10% FCS, SAC, sheep TSN and PMA. Cells were cultivated in the presence of EL4B5 feeder cells. After one week of cultivation, the IgG concentration of the supernatant of the cells was analyzed by ELISA.
This experiment was performed again. PBMCs were isolated from sheep immunized with another KLH-conjugated hapten, underwent positive panning for enrichment of antigen-specific B-cells and were stained for both sheep sIgG and CD21. Double-positive single cells were sorted in 96-well plates using a BD FACS Aria cell sorter. Cells were cultivated in IMDM supplemented with 10% FCS, SAC, sheep TSN and PMA in the presence of EL4B5 feeder cells.
In control experiments single cells were cultivated using the same cultivation conditions in the absence of PMA. After one week of cultivation, the IgG concentration of the cell supernatants was analyzed by ELISA. After one week of cultivation in the presence of PMA a total of approx. 16% of total wells contained IgG-secreting B-cell clones. In turn, 35% of the wells with IgG-secreting clones contained a low IgG concentration, 35% contained an average IgG concentration and 30% contained a high IgG concentration. In the absence of PMA none of the wells contained IgG-secreting B-cell clones.
Sheep PBMCs from immunized animals were isolated as described above. Antigen-specific B-cells were enriched by positive panning using the biotinylated antigen and magnetic streptavidin microbeads (Miltenyi Biotec) as described above. Cells were stained using a 1:50 diluted FITC-labeled anti-sheep IgG monoclonal antibody (Clone GT-34) (Sigma-Aldrich) in combination with a 1:10 diluted RPE-labeled anti-sheep CD21 mAb (AbD Serotec). Cells were incubated with the mAbs for 45 min. at 4° C. under gentle rotation. In control experiments aliquots of the cells were stained with the individual mAbs alone (single staining). Unstained cells served as negative control.
After washing with PBS cells were resuspended in FACS buffer and subjected to cell sorting using a FACS Aria I cell sorter (BD Biosciences). Single sIgG^+CD21^+ double positive B-cells were identified and sorted into a 96-well plate (one cell/well) containing 280 μl medium and γ-irradiated murine EL4B5 feeder cells (approx. 5×10^4 feeder cells/well seeded 24 hours before cell sorting into the plates).
The medium for cultivation of single ovine B-cells was IMDM (Gibco) was supplemented with 10% FCS (Hyclone), L-Penicillin-Streptomycin-Glutamine (1×) (Gibco), 55 μM 2-Mercaptoethanol (Gibco), 0.025% Pluronic F-68 (Gibco), sheep TSN (1:20 dilution), SAC (1:10,000 dilution) (Calbiochem) and 1 μg/ml PMA (Sigma-Aldrich).
B-cells were incubated for 7 to 10 days in the medium at 37° C./5% CO2 in a humidified atmosphere. Subsequently the supernatant of the cells was harvested and the IgG concentration was determined by ELISA as described below
A biotin-conjugated monoclonal anti-sheep IgG antibody (cat. #213-062-177, Dianova, Hamburg, Germany) was immobilized on a streptavidin coated 96-well plate (MicroCoat, Bernried, Germany). The mAb (100 μl/well) was used at a concentration of 300 ng/ml in PBS/1% RPLA4 (bovine plasma albumin) (Roche Diagnostics GmbH, Mannheim, Germany) and wells were incubated for 1 hour at room temperature (RT) with the diluted mAb. After washing with Wash Buffer (0.9% NaCl/0.05% Tween) the supernatants of the in vitro cultivated B-cells or serial dilutions of purified polyclonal sheep IgG (Roche) were added to the plates and incubated for 1 h at RT. After washing with Wash Buffer wells were incubated with a donkey anti-sheep IgG (H+L) antibody (1:15,000 dilution in PBS/1% RPLA4) labeled with horseradish peroxidase (Dianova, cat. #713-035-147). […]

Assay [2] deals with single sIgG+CD21+ B-cells. The assay can be described thus: Antigen-specificity of IgG secreted by single-cell B-cell clones (antigen-specific ELISA). The class given is cell-based, sheep. The conditions noted are these: for % wells with antigen-specific IgG: % of IgG-secreting clones. As to the method:
The specificity of the secreted antibodies was analyzed using an antigen-specific ELISA (data not shown).
Additionally, the specificity of the secreted antibodies was analyzed using an antigen-specific ELISA (data not shown).
Biotin-conjugated antigens were immobilized on a streptavidin coated 96-well plate (MicroCoat, Bernried, Germany). The biotinylated antigens (100 μl/well) were used at a concentration of 100-300 ng/ml in PBS/1% RPLA4 (bovine plasma albumin) (Roche Diagnostics GmbH, Mannheim, Germany) and wells were incubated with the diluted antigens for 1 hour at room temperature (RT). After washing with Wash Buffer (0.9% NaCl/0.05% Tween) the supernatants of the in vitro cultivated B-cells or serial dilutions of purified polyclonal sheep IgG (Roche) were added to the plates and incubated for 1 hour at RT. After washing with Wash Buffer wells were incubated with a donkey anti-sheep IgG (H+L) antibody (1:15,000 dilution in PBS/1% RPLA4) labeled with horseradish peroxidase (Dianova, cat. #713-035-147). After incubation for 1 hour at RT the plates were washed with Wash Buffer and signals were detected using ABTS solution (Roche Diagnostics GmbH, Mannheim, Germany) as substrate.

Setting [3] is: first experiment, % of wells with IgG-secreting clones.
Setting [4] is: second experiment, listed as with PMA.
The mark [5] stands for this setting: second experiment, % of wells with IgG-secreting clones.
Setting [6] is: second experiment, % of wells with IgG-secreting clones, listed as with PMA.

`CCCCCCCCCCCCCC(=O)O[C@@H]1[C@@H](C)[C@@]2(O)[C@@H](C=C(CO)C[C@]3(O)C(=O)C(C)=C[C@@H]23)[C@@H]2C(C)(C)[C@]12OC(C)=O` [PMA, Phorbol 12-Myristate-13-Acetate]: the “wells containing significant concentrations of IgG (>50 ng/ml)” value in the assay with sIgG+CD45R+ B-cells (DMEM basal medium (10% FCS, SAC, sheep TSN)) is 64%. The “wells with an average IgG concentration (50-200 ng/ml)” value with sIgG+CD45R+ B-cells (IMDM as basal medium) amounted to 100%. In the assay on sIgG+CD45R+ B-cells (IMDM basal medium (10% FCS, SAC, sheep TSN)), the “wells containing significant concentrations of IgG (>50 ng/ml)” value amounted to 100%. For the same molecule, in the assay with sIgG+CD21+ B-cells (IMDM as basal medium), the “wells with a high IgG concentration (200-400 ng/ml)” value is “approx. 50%” and the “wells with an average IgG concentration (50-200 ng/ml)” value was “approx. 40%”. In addition, the “wells containing significant levels of IgG (>50 ng/ml)” value with sIgG+CD21+ B-cells (addition to the basal medium) is “approx. 90%”. In assay [1] (setting [3]), the “wells with IgG-secreting clones containing a high IgG concentration (200-400 ng/ml)” value is given as 14%, the “wells with IgG-secreting clones containing a low IgG concentration (10-50 ng/ml)” value turned out to be 62% and the “wells with IgG-secreting clones containing an average IgG concentration (50-200 ng/ml)” value is recorded as 24%. Further, the “total wells containing IgG-secreting B-cell clones” value in assay [1] (first experiment, single cells, IMDM with 10% FCS, SAC, sheep TSN and PMA, EL4B5 feeder cells, one week) amounted to 33%. Besides, in assay [1] (second experiment), the “wells with high IgG conc. (number)” value is given as 20, the “wells with low IgG conc. (number)” value is listed as 23, the “wells with medium IgG conc. (number)” value is on record as 23 and the “% IgG positive wells” value was “approx. 16%”. For the same molecule, the “No. IgG positive wells” value in assay [1] (second experiment (another KLH-conjugated hapten), single cells, one week) amounted to 66. Also, the “% IgG positive wells” value in assay [1] (setting [4]) was determined as 15.7%. For the same molecule, in assay [1] (setting [5]), the “wells with high IgG conc. (%)” value is reported as 30%, the “wells with low IgG conc. (%)” value was determined as 35% and the “wells with medium IgG conc. (%)” value is recorded as 35%. For the same molecule, in assay [1] (setting [6]), the “wells with high IgG conc. (%)” value is recorded as 30.3%, the “wells with low IgG conc. (%)” value came out at 34.8% and the “wells with medium IgG conc. (%)” value was determined as 34.8%. For the same molecule, in assay [2] (first experiment, % of total IgG-secreting clones), the “IgG-secreting clones producing antigen-specific antibodies” value stood at 38%. In assay [2] (second experiment), the “No. wells with antigen-specific IgG” value stood at 19 and the “% wells with antigen-specific IgG” value is 29%. The “% wells with antigen-specific IgG” value in assay [2] (setting [4]) was determined as 28.8%.

In the case of “IL-6: human IL-6 (Roche Diagnostics GmbH), 50 ng/ml added to the basal medium”, the “number of IgG-containing wells compared with basal medium” value in the assay with sIgG+CD45R+ B-cells was “increase”.

B1: IL-4: human IL-4 (Peprotech), 10 ng/ml added to the basal medium (protein, UniProt P05112 25-153, looked up)
Interleukin-4: HKCDITLQEIIKTLNSLTEQKTLCTELTVTDIFAASKNTTEKETFCRAATVLRQFYSHHEKDTRCLGATAQQFHRHKQLIRFLKRLDRNLWGLAGLNSCPVKEANQSTLENFLERLKTIMREKYSKCSS
On to B1, for which the “number of IgG-containing wells compared with basal medium” value in the assay on sIgG+CD45R+ B-cells and in the assay with sIgG+CD21+ B-cells (basal medium supplemented with the factor) was “increase” in each case.
